Reference: patent publication US20260022142A1, “MACROCYCLIC IMMUNOMODULATORS” (Bristol-Myers Squibb Company, priority 2022, published 2026)
Numbered stars: 1 amine (or outer) side, 2 acyl side, 3 side chain; on linkers, the order of the positions; unused ones are H or OH. Bridge positions count the residues as written; N and C are the ends. Square brackets hold non-standard residues; d marks the D form. Peptide text beside a SMILES is read from it. * marks the point of attachment. ξ: configuration not given here. Phe(3-CF3) = N[C@@H](Cc1cccc(C(F)(F)F)c1)C(=O)O; Phe(4-COOH) = N[C@@H](Cc1ccc(C(=O)O)cc1)C(=O)O; Bip = N[C@@H](Cc1ccc(-c2ccccc2)cc1)C(=O)O; NH(CH2)14COOH = O=C(O)CCCCCCCCCCCCCCN*; Phe(3-Me) = Cc1cccc(C[C@H](N)C(=O)O)c1; γGlu = O=C(O)[C@H](CCC(=O)[*:2])N[*:1]; NH(CH2)12COOH = O=C(O)CCCCCCCCCCCCN*; Val(3-OH) = CC(C)(O)[C@H](N)C(=O)O; hArg = N=C(N)NCCCC[C@H](N)C(=O)O; Cha = N[C@@H](CC1CCCCC1)C(=O)O; Cit = NC(=O)NCCC[C@H](N)C(=O)O; Ile(3ξ) = CCC(C)[C@H](N)C(=O)O; Thr(3ξ) = CC(O)[C@H](N)C(=O)O; 12Ado = NCCCCCCCCCCCC(=O)O; Carboxymethyl = O=C(O)C*; Orn = NCCC[C@H](N)C(=O)O; dNMeA = CN[C@H](C)C(=O)O; Aun = NCCCCCCCCCCC(=O)O; Dab = NCC[C@H](N)C(=O)O; Dap = NC[C@H](N)C(=O)O; AEEA = NCCOCCOCC(=O)O

biological target: T1, PD-1/PD-L1 interaction (PE-labeled human PD-L1-Ig binding to Jurkat cell line over-expressing human PD-1) (Homo sapiens, UniProt Q15116); assay: Jurkat-PD-1 Cell Binding High-Content Screening Assay (CBA); assay type: cell-based; conditions: Jurkat cell line over-expressing human PD-1; PE-labeled PD-L1-Ig 20 nM final; read-out: Jurkat hPD1-PDL1 IC50
T1 construct: expressed in transfected cells; host or cells: Jurkat
Method in brief: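 Jurkat cells stably over-expressing human PD-1 were seeded in DMEM with 10% fetal calf serum and pre-incubated with compound for 2 h at 37° C. PE-labeled human PD-L1-Ig was then added at 20 nM final for 1 hour, after which cells were fixed with paraformaldehyde, Hoechst-stained and imaged by high-content microscopy.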

T1 sequence (Q15116 25-288): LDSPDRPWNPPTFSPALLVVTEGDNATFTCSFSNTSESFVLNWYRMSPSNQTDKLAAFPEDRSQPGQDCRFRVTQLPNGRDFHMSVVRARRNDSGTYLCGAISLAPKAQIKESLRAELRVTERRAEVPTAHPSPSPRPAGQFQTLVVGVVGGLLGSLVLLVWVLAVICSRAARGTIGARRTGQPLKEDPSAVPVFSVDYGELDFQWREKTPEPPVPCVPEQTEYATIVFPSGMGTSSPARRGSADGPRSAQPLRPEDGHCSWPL

SMILES	IC50
CC(C)C[C@H]1NC(=O)[C@H](CCCN)NC(=O)[C@H](Cc2ccc(OCC(=O)O)cc2)NC(=O)[C@H](Cc2ccc(-c3ccccc3)cc2)NC(=O)[C@H](Cc2ccc(OCC(=O)O)cc2)NC(=O)[C@H](Cc2cccc(C(F)(F)F)c2)NC(=O)[C@H](CC(=O)O)NC(=O)[C@H](Cc2ccc(OCC(=O)O)cc2)NC(=O)[C@H](Cc2ccc(OCC(=O)O)cc2)NC(=O)CSC[C@@H](C(=O)N[C@@H](CCN)C(=O)NCCOCCOCC(=O)NCCOCCOCC(=O)N[C@@H](CCC(=O)N[C@@H](CCC(=O)NCCCCCCCCCCCCCCC(=O)O)C(=O)O)C(=O)O)NC(=O)[C@H](Cc2cnc[nH]2)NC(=O)[C@H](C(C)(C)O)NC(=O)[C@H](CC2CCCCC2)NC(=O)[C@H](CCN)NC1=O [Compound 3872] ({CH2CO}-Y(Carboxymethyl)Y(Carboxymethyl)D[Phe(3-CF3)]Y(Carboxymethyl)[Bip]Y(Carboxymethyl)[Orn][dL][Dab][Cha][Val(3-OH)]HC[Dab][AEEA][AEEA][γGlu][γGlu]-{NH(CH2)14COOH}; thioether N-14)	174 nM
Cc1cccc(C[C@@H]2NC(=O)[C@H](CC(=O)O)NC(=O)[C@H](Cc3ccc(OCC(=O)O)cc3)NC(=O)[C@H](CN)NC(=O)CSC[C@@H](C(=O)N[C@@H](C)C(=O)N[C@@H](CCCCN)C(=O)NCC(=O)NCCCCCCCCCCCCCCC(=O)O)NC(=O)[C@H](C(C)O)NC(=O)[C@H](C(C)C)NC(=O)[C@H](CC3CCCCC3)NC(=O)[C@H](CCN)NC(=O)[C@@H](CC(C)C)NC(=O)[C@H](CCCN)NC(=O)[C@H](CCCNC(N)=O)NC(=O)[C@H](Cc3ccc(-c4ccccc4)cc3)NC(=O)[C@H](C(C)C)NC2=O)c1 (stereo partly drawn) [Compound 3007] ({CH2CO}-[Dap]Y(Carboxymethyl)D[Phe(3-Me)]V[Bip][Cit][Orn][dL][Dab][Cha]V[Thr(3ξ)]CAKG-{NH(CH2)14COOH}; thioether N-14)	180 nM
CC(C)C[C@@H]1NC(=O)[C@H](Cc2c[nH]c3ccccc23)NC(=O)[C@H](CC(=O)O)NC(=O)[C@H](Cc2ccc(OCC(=O)O)cc2)NC(=O)[C@H](C(C)O)NC(=O)CSC[C@@H](C(=O)NCCOCCOCC(=O)NCCCCCCCCCCC(=O)O)NC(=O)[C@H](Cc2cnc[nH]2)NC(=O)[C@H](C(C)O)NC(=O)[C@H](CC2CCCCC2)NC(=O)[C@H](CCN)NC(=O)[C@@H](CC(C)C)NC(=O)[C@H](CCCN)NC(=O)[C@H](C(C)C)NC(=O)[C@H](Cc2ccc(-c3ccccc3)cc2)NC1=O (stereo partly drawn) [Compound 3691] ({CH2CO}-[Thr(3ξ)]Y(Carboxymethyl)DWL[Bip]V[Orn][dL][Dab][Cha][Thr(3ξ)]HC[AEEA][Aun]-OH; thioether N-14)	71.3 nM
CC(C)C[C@@H]1NC(=O)[C@H](Cc2c[nH]c3ccccc23)NC(=O)[C@H](CC(=O)O)NC(=O)[C@H](Cc2ccc(OCC(=O)O)cc2)NC(=O)[C@H](CN)NC(=O)CSC[C@@H](C(=O)N[C@@H](CCN)C(=O)NCCCCCCCCCCC(=O)O)NC(=O)[C@H](CCCN)NC(=O)[C@H](C(C)O)NC(=O)[C@H](CC2CCCCC2)NC(=O)[C@H](CCN)NC(=O)[C@@H](CC(C)C)NC(=O)[C@H](CCCN)NC(=O)[C@H](Cc2ccc(O)cc2)NC(=O)[C@H](Cc2ccc(-c3ccccc3)cc2)NC1=O (stereo partly drawn) [Compound 3682] ({CH2CO}-[Dap]Y(Carboxymethyl)DWL[Bip]Y[Orn][dL][Dab][Cha][Thr(3ξ)][Orn]C[Dab][Aun]-OH; thioether N-14)	51.4 nM
Cc1cccc(C[C@@H]2NC(=O)[C@H](CC(=O)O)NC(=O)[C@H](Cc3ccc(OCC(=O)O)cc3)NC(=O)[C@H](CN)NC(=O)CSC[C@@H](C(=O)N(C)[C@H](C)C(=O)N[C@@H](CCC(=O)O)C(=O)NCCCCCCCCCCC(=O)O)NC(=O)[C@H]([C@@H](C)O)NC(=O)[C@H](C(C)C)NC(=O)[C@H](CC3CCCCC3)NC(=O)[C@H](CCN)NC(=O)[C@@H](CC(C)C)NC(=O)[C@H](CCCN)NC(=O)[C@H](CCCNC(N)=O)NC(=O)[C@H](Cc3ccc(-c4ccccc4)cc3)NC(=O)[C@H](C(C)C)NC2=O)c1 [Compound 2809] ({CH2CO}-[Dap]Y(Carboxymethyl)D[Phe(3-Me)]V[Bip][Cit][Orn][dL][Dab][Cha]VTC[dNMeA]E[Aun]-OH; thioether N-14)	180 nM

Stronger by IC50, values ahead:

IC50	SMILES
9.5 nM	CC(C)C[C@H]1NC(=O)[C@H](CCCN)NC(=O)[C@H](C(C)C)NC(=O)[C@H](Cc2ccc(-c3ccccc3)cc2)NC(=O)[C@H](C(C)C)NC(=O)[C@H](Cc2c[nH]c3ccccc23)NC(=O)[C@H](CC(=O)O)NC(=O)[C@H](Cc2ccc(OCC(=O)O)cc2)NC(=O)[C@H](C(C)O)NC(=O)CSC[C@@H](C(=O)N[C@@H](CC(N)=O)C(=O)NCCOCCOCC(=O)N[C@@H](CCCCN)C(=O)NCCCCCCCCCCC(=O)O)NC(=O)[C@H](C(C)O)NC(=O)[C@H](C(C)C)NC(=O)[C@H](CC2CCCCC2)NC(=O)[C@H](CCN)NC1=O (stereo partly drawn) [Compound 3027] ({CH2CO}-[Thr(3ξ)]Y(Carboxymethyl)DWV[Bip]V[Orn][dL][Dab][Cha]V[Thr(3ξ)]CN[AEEA]K[Aun]-OH; thioether N-14)
14.2 nM	Cc1cccc(C[C@@H]2NC(=O)[C@H](CC(=O)O)NC(=O)[C@H](Cc3ccc(OCC(=O)O)cc3)NC(=O)[C@H](CCCNC(=N)N)NC(=O)CSC[C@@H](C(=O)N[C@@H](CCN)C(=O)NCCCCCCCCCCC(=O)O)NC(=O)[C@H](C(C)O)NC(=O)[C@H](C(C)C)NC(=O)[C@H](CC3CCCCC3)NC(=O)[C@H](CCN)NC(=O)[C@@H](CC(C)C)NC(=O)[C@H](CCCNC(N)=O)NC(=O)[C@H](CCCN)NC(=O)[C@H](Cc3ccc(-c4ccccc4)cc3)NC(=O)[C@H](C(C)C)NC2=O)c1 (stereo partly drawn) [Compound 3304] ({CH2CO}-RY(Carboxymethyl)D[Phe(3-Me)]V[Bip][Orn][Cit][dL][Dab][Cha]V[Thr(3ξ)]C[Dab][Aun]-OH; thioether N-14)
16.1 nM	Cc1cccc(C[C@@H]2NC(=O)[C@H](CC(=O)O)NC(=O)[C@H](Cc3ccc(OCC(=O)O)cc3)NC(=O)[C@H](Cc3ccc(OCC(=O)O)cc3)NC(=O)CSC[C@@H](C(=O)N[C@@H](CCN)C(=O)NCCOCCOCC(=O)NCCCCCCCCCCCCC(=O)O)NC(=O)[C@H](CO)NC(=O)[C@H](C(C)(C)O)NC(=O)[C@H](CC3CCCCC3)NC(=O)[C@H](CCN)NC(=O)[C@@H](CC(C)C)NC(=O)[C@H](CCCN)NC(=O)[C@H](Cc3ccc(C(=O)O)cc3)NC(=O)[C@H](Cc3ccc(-c4ccccc4)cc3)NC(=O)[C@H](Cc3ccc(C(=O)O)cc3)NC2=O)c1 [Compound 3842] ({CH2CO}-Y(Carboxymethyl)Y(Carboxymethyl)D[Phe(3-Me)][Phe(4-COOH)][Bip][Phe(4-COOH)][Orn][dL][Dab][Cha][Val(3-OH)]SC[Dab][AEEA]-{NH(CH2)12COOH}; thioether N-14)
12.8 nM	Cc1cccc(C[C@@H]2NC(=O)[C@H](CC(=O)O)NC(=O)[C@H](Cc3ccc(OCC(=O)O)cc3)NC(=O)[C@H](CN)NC(=O)CSC[C@@H](C(=O)N[C@@H](CCN)C(=O)NCCCCCCCCCCC(=O)O)NC(=O)[C@H](CCCN)NC(=O)[C@H](C(C)C)NC(=O)[C@H](CC3CCCCC3)NC(=O)[C@H](CCN)NC(=O)[C@@H](CC(C)C)NC(=O)[C@H](CCCN)NC(=O)[C@H](CCCNC(N)=O)NC(=O)[C@H](Cc3ccc(-c4ccccc4)cc3)NC(=O)[C@H](Cc3ccc(O)cc3)NC2=O)c1 [Compound 2846] ({CH2CO}-[Dap]Y(Carboxymethyl)D[Phe(3-Me)]Y[Bip][Cit][Orn][dL][Dab][Cha]V[Orn]C[Dab][Aun]-OH; thioether N-14)
17.8 nM	CCC(C)[C@@H]1NC(=O)[C@H](Cc2ccc(-c3ccccc3)cc2)NC(=O)[C@H](C(C)C)NC(=O)[C@H](Cc2c[nH]c3ccccc23)NC(=O)[C@H](CC(=O)O)NC(=O)[C@H](Cc2ccc(OCC(=O)O)cc2)NC(=O)[C@H](CCCCNC(=N)N)NC(=O)CSC[C@@H](C(=O)N[C@H](CO)C(=O)NCCOCCOCC(=O)NCCCCCCCCCCC(=O)O)NC(=O)[C@H](CO)NC(=O)[C@H](C(C)C)NC(=O)[C@H](CC2CCCCC2)NC(=O)[C@H](CCN)NC(=O)[C@@H](CC(C)C)NC(=O)[C@H](CCCN)NC1=O (stereo partly drawn) [Compound 3060] ({CH2CO}-[hArg]Y(Carboxymethyl)DWV[Bip][Ile(3ξ)][Orn][dL][Dab][Cha]VSC[dS][AEEA][Aun]-OH; thioether N-14)
22.4 nM	Cc1cccc(C[C@@H]2NC(=O)[C@H](CC(=O)O)NC(=O)[C@H](Cc3ccc(OCC(=O)O)cc3)NC(=O)[C@H](CN)NC(=O)CSC[C@@H](C(=O)N[C@@H](CCN)C(=O)NCCCCCCCCCCC(=O)O)NC(=O)[C@@H](CCC(N)=O)NC(=O)[C@H](C(C)C)NC(=O)[C@H](CC3CCCCC3)NC(=O)[C@H](CCN)NC(=O)[C@@H](CC(C)C)NC(=O)[C@H](CCCN)NC(=O)[C@H](Cc3ccc(O)cc3)NC(=O)[C@H](Cc3ccc(-c4ccccc4)cc3)NC(=O)[C@H](C(C)C)NC2=O)c1 [Compound 2721] ({CH2CO}-[Dap]Y(Carboxymethyl)D[Phe(3-Me)]V[Bip]Y[Orn][dL][Dab][Cha]V[dQ]C[Dab][Aun]-OH; thioether N-14)
11.9 nM	CC[C@H](C)[C@@H]1NC(=O)[C@H](Cc2ccc(-c3ccccc3)cc2)NC(=O)[C@H](C(C)C)NC(=O)[C@H](Cc2cccc(C)c2)NC(=O)[C@H](CC(=O)O)NC(=O)[C@H](Cc2ccc(C(=O)O)cc2)NC(=O)[C@H](Cc2ccncc2)NC(=O)CSC[C@@H](C(=O)N[C@@H](C)C(=O)N[C@@H](CCC(=O)O)C(=O)NCCCCCCCCCCC(=O)O)NC(=O)[C@H]([C@@H](C)O)NC(=O)[C@H](C(C)C)NC(=O)[C@H](CC2CCCCC2)NC(=O)[C@H](CCN)NC(=O)[C@@H](CC(C)C)NC(=O)[C@H](CCCN)NC1=O [Compound 1039]
11.3 nM	CC(C)C[C@H]1NC(=O)[C@H](CCCN)NC(=O)[C@H](C(C)C)NC(=O)[C@H](Cc2ccc(-c3ccccc3)cc2)NC(=O)[C@H](C(C)C)NC(=O)[C@H](Cc2c[nH]c3ccccc23)NC(=O)[C@H](CC(=O)O)NC(=O)[C@H](Cc2ccc(C(=O)O)cc2)NC(=O)[C@H](C(C)O)NC(=O)CSC[C@@H](C(=O)N[C@@H](CC(N)=O)C(=O)NCCOCCOCC(=O)N[C@@H](CCCN)C(=O)NCCCCCCCCCCCC(=O)O)NC(=O)[C@H](CO)NC(=O)[C@H](C(C)C)NC(=O)[C@H](CC2CCCCC2)NC(=O)[C@H](CCN)NC1=O (stereo partly drawn) [Compound 3038] ({CH2CO}-[Thr(3ξ)][Phe(4-COOH)]DWV[Bip]V[Orn][dL][Dab][Cha]VSCN[AEEA][Orn][12Ado]-OH; thioether N-14)
